pIC50: −log10 of the molar value. Where two headings read alike, the source gives them in different places.
Columns and labels:
PAK4 = PAK4 (Homo sapiens, UniProt O96013); experiment: ExpresS Diversity Kinase Profile, Cerep (LANCE): PAK4; format: biochemical
EP2 = EP2 (Homo sapiens, UniProt P43116); experiment: EP2 functional agonist assay, Cerep (cAMP, HTRF)
FGFR3 = FGFR3 (Homo sapiens, UniProt P22607); experiment: ExpresS Diversity Kinase Profile, Cerep (LANCE): FGFR3; format: biochemical
15-LO-2 = target: T1, 15-LO-2 (Homo sapiens, UniProt O15296); experiment: 15-LO-2 inhibition assay, Cerep (Method A, fluorometry); format: biochemical; conditions: 5 µM
T1 sequence (O15296 1-676): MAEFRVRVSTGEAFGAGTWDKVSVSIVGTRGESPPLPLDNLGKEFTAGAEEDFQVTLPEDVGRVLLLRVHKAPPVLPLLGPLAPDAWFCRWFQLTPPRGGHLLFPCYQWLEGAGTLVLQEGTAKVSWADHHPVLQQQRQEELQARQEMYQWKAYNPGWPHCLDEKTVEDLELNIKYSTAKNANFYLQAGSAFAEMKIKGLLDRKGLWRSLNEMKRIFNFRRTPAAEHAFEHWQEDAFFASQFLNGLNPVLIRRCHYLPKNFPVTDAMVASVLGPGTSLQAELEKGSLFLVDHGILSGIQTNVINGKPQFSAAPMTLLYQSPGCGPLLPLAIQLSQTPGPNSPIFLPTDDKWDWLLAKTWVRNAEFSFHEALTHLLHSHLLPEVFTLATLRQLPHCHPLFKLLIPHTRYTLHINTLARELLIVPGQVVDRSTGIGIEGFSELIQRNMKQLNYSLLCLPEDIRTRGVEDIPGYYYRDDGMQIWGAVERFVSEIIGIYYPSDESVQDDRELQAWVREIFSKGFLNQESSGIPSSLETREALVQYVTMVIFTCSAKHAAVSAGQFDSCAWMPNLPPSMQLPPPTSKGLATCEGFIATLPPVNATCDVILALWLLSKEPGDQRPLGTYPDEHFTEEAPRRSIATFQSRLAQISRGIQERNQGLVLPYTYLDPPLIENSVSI

TRPV1 = TRPV1 (Homo sapiens, UniProt Q8NER1); experiment: TRPV1 functional antagonist assay, Cerep (capsaicin 30 nM); format: cell-based
HL-60 cells = experiment: HL-60 cell viability assay (Alamar Blue, 48 hours); conditions: Homo sapiens, HL-60, 48 h
p38α = p38α (Homo sapiens, UniProt Q16539); experiment: ExpresS Diversity Kinase Profile, Cerep (LANCE): p38α; format: biochemical; conditions: 150 µM
GSK3β = GSK3β (Homo sapiens, UniProt P49841); experiment: ExpresS Diversity Kinase Profile, Cerep (LANCE): GSK3β; format: biochemical
SIK = SIK (Homo sapiens, UniProt P57059); experiment: ExpresS Diversity Kinase Profile, Cerep (LANCE): SIK; format: biochemical; conditions: 150 µM
TRPM8 = target: T2, TRPM8 (Homo sapiens, UniProt Q7Z2W7); experiment: TRPM8 functional antagonist assay, Cerep (icilin 100 nM); format: cell-based
T2 construct: Cerep, SA (fee-for-service assay) printed G018533 (citation number 33 glued on)

PLK1 = PLK1 (Homo sapiens, UniProt P53350); experiment: ExpresS Diversity Kinase Profile, Cerep (LANCE): PLK1; format: biochemical
Pim2 = Pim2 (Homo sapiens, UniProt Q9P1W9); experiment: ExpresS Diversity Kinase Profile, Cerep (LANCE): Pim2; format: biochemical; conditions: Flag: Interference
5-LO = target: T3, 5-LO (Homo sapiens, UniProt P09917); experiment: 5-LO product formation in intact human neutrophils stimulated with A23187 plus arachidonic acid
T3 sequence (P09917 1-674): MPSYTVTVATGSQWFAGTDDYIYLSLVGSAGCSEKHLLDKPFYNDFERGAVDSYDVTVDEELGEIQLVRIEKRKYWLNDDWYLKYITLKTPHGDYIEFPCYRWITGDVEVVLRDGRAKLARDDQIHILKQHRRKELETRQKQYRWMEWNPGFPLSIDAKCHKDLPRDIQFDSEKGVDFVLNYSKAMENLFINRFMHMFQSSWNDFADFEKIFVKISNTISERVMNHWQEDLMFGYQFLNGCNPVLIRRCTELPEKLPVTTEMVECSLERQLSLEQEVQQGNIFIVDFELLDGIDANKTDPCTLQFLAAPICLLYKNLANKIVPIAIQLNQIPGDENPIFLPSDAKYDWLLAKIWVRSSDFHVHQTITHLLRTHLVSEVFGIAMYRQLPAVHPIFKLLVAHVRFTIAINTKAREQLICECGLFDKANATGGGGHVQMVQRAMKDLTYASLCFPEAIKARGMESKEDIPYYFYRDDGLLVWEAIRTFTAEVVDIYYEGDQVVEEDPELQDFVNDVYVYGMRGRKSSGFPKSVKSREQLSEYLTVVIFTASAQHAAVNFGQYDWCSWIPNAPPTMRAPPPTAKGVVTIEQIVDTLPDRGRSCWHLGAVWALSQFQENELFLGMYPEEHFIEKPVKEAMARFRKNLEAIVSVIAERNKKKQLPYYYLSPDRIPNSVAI

PDE5 = PDE5 (Homo sapiens, UniProt O76074); experiment: Phosphodiesterase 5 inhibition assay, Cerep (scintillation counting); format: biochemical; conditions: for percent inhibition at 2 µM: PDE5
PKCβ2 = PKCβ2 (Homo sapiens, UniProt P05771); experiment: ExpresS Diversity Kinase Profile, Cerep (LANCE): PKCβ2; format: biochemical
[1] = n = 2, read-out: % Inhibition of control values, Mean
[2] = read-out: % Inhibition of control values, 1st measurement
[3] = read-out: % Inhibition of control values, 2nd measurement
[4] = read-out: % of control values, 1st measurement
[5] = read-out: % of control values, 2nd measurement
[6] = Flag: Interference, read-out: % Inhibition of control values, 1st measurement
[7] = Flag: Interference, read-out: % Inhibition of control values, 2nd measurement
[8] = n = 2, Flag: Interference, read-out: % Inhibition of control values, Mean

Sequence of GSK3β (P49841 whole entry): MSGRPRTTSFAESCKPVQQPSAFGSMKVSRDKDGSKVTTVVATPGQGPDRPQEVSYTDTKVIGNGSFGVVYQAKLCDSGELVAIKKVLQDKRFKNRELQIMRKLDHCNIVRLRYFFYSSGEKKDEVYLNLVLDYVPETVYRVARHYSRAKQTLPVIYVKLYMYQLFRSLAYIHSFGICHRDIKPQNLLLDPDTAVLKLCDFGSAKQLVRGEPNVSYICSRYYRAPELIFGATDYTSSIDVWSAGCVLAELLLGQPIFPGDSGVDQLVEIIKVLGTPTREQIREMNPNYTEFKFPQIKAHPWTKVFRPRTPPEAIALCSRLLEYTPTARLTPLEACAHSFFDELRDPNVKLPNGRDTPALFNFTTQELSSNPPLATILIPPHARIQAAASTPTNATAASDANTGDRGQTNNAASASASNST
Sequence of EP2 (P43116 whole entry): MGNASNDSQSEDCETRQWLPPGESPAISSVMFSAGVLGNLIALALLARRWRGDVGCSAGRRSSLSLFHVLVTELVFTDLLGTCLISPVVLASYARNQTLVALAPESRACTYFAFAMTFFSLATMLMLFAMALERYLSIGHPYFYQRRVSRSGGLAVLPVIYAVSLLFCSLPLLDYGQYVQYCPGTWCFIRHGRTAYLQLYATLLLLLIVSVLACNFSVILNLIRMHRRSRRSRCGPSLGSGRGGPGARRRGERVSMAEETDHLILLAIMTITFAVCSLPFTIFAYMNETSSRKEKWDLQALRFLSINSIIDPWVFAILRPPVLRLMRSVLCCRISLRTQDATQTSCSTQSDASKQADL
Sequence of PKCβ2 (P05771 1-673 isoform P05771-2): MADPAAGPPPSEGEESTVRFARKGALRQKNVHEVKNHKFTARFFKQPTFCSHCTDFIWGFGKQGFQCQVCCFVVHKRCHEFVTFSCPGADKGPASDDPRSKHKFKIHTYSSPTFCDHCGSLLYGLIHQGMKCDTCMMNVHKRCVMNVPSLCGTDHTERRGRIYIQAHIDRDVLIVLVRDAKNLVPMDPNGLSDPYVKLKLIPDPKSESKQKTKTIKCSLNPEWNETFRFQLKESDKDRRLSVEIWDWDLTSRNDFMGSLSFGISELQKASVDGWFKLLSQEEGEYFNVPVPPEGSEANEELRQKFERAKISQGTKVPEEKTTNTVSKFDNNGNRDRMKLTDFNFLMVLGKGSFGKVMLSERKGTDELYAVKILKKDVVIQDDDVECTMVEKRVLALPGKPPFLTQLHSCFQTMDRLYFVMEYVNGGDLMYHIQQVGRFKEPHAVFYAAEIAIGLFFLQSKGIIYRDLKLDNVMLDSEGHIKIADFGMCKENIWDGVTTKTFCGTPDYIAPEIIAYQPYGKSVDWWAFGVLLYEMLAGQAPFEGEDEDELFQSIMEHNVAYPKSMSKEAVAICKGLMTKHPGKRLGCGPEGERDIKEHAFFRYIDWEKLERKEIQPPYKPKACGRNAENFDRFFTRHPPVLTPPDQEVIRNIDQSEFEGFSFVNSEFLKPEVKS
Sequence of PAK4 (O96013 whole entry): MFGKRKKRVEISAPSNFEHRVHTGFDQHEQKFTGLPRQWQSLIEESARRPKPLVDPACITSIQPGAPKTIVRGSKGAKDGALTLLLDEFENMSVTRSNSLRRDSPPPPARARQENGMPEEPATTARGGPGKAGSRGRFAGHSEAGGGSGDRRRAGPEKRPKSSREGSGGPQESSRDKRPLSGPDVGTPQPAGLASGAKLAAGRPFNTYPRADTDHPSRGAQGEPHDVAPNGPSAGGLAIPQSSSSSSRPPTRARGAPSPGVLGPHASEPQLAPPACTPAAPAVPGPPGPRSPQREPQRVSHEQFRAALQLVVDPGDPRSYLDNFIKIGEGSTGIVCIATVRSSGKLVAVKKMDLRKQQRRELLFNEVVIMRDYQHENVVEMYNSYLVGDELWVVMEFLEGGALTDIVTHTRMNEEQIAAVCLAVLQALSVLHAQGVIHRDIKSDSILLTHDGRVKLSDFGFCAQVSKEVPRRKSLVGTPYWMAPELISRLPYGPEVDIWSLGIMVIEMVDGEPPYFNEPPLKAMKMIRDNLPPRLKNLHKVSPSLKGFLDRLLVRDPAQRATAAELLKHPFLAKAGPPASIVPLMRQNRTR
Sequence of SIK (P57059 whole entry): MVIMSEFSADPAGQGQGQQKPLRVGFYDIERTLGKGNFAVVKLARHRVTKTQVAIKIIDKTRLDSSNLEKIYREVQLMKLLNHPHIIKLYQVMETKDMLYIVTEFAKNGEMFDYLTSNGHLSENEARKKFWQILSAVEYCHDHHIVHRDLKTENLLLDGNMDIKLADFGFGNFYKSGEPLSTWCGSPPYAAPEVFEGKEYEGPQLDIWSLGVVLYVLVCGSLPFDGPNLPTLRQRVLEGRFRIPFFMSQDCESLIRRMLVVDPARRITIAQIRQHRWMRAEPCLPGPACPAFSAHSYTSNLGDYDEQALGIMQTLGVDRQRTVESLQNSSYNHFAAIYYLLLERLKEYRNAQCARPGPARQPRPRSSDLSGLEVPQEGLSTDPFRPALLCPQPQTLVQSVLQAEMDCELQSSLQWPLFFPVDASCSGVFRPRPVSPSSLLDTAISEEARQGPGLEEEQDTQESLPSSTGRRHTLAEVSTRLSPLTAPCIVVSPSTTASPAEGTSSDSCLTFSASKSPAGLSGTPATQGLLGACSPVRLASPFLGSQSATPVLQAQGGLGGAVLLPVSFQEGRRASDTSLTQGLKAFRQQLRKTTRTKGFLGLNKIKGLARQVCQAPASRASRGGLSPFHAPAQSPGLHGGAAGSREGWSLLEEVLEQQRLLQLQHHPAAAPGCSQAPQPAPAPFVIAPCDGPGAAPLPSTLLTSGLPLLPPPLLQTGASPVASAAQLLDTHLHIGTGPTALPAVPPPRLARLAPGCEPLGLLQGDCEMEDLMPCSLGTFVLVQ
Sequence of FGFR3 (P22607 23-806): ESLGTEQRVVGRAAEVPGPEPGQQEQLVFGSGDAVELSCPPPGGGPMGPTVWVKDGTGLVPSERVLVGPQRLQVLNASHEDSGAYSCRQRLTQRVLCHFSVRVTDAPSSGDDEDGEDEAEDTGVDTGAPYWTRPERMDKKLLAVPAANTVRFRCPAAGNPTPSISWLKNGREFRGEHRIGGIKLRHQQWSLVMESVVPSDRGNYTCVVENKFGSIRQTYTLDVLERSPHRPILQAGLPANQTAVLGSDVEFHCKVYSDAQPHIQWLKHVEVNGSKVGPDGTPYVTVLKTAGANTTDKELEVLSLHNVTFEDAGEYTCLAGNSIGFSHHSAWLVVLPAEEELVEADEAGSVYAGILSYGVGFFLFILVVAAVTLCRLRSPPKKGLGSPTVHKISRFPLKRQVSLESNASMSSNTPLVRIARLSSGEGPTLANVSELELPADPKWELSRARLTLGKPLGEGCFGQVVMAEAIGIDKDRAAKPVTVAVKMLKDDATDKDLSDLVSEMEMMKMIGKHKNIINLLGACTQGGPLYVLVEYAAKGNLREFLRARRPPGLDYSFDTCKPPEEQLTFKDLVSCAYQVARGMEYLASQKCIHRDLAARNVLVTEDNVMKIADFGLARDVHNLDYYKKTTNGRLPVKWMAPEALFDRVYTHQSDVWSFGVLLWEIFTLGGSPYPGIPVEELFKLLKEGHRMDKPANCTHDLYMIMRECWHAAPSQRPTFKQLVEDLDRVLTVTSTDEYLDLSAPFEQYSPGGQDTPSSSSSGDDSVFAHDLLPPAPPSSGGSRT
Sequence of p38α (Q16539 whole entry): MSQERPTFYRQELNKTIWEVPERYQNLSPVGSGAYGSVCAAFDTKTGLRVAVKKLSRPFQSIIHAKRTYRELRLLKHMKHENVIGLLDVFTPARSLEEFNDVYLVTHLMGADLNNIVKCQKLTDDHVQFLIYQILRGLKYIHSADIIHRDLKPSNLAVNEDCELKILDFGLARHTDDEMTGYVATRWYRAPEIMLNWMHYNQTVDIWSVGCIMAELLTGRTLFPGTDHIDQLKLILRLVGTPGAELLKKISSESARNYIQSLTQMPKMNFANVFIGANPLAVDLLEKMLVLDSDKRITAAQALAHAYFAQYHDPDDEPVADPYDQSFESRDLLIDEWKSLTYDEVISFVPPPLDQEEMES
Sequence of PLK1 (P53350 whole entry): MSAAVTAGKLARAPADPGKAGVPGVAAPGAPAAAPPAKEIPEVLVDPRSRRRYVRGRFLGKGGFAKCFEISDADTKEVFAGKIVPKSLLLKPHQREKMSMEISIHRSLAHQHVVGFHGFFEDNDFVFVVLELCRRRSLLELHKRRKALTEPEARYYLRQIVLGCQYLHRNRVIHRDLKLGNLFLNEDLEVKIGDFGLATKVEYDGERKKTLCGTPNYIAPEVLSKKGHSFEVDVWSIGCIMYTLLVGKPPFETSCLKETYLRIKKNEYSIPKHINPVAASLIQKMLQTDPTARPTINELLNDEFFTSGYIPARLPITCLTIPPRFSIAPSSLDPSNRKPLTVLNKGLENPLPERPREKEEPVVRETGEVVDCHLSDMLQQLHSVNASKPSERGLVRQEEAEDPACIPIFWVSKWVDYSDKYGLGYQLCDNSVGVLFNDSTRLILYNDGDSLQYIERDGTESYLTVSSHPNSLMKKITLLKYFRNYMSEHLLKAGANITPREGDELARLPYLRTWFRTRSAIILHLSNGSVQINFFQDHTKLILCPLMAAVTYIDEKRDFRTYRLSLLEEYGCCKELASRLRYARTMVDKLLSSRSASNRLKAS
Sequence of Pim2 (Q9P1W9 whole entry): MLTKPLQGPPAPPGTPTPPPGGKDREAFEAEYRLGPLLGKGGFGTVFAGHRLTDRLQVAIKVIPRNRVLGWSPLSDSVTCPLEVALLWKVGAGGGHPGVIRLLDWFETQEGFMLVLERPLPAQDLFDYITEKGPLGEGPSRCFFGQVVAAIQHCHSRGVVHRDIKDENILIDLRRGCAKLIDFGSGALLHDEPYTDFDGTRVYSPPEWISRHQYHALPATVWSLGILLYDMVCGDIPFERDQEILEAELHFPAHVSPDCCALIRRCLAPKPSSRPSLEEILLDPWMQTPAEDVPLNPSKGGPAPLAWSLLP

CC1(C)CCC2=C(O1)c1ccccc1C(=O)C2=O [β-Lapachone]
inhibition at 150 µM (PAK4; [1]): -1.9% | inhibition at 150 µM (PAK4; [2]): -3.7% | inhibition at 150 µM (PAK4; [3]): 0% | remaining activity at 150 µM (EP2; [4]): 12.3% | remaining activity at 150 µM (EP2; [5]): 14.8% | remaining activity at 150 µM (EP2; read-out: % of control values, Mean): 13.5% | inhibition at 150 µM (FGFR3; [6]): 76.5% | inhibition at 150 µM (FGFR3; [7]): 85.1% | inhibition at 150 µM (FGFR3; [8]): 80.8% | inhibition at 5 µM (15-LO-2; n = 2, read-out: % inhibition of control values, Mean): -12.9% | inhibition at 5 µM (15-LO-2; read-out: % inhibition of control values, 1st measure): -12% | inhibition at 5 µM (15-LO-2; read-out: % inhibition of control values, 2nd measure): -13.8% | pIC50 (TRPV1): ~4.00 | pIC50 (HL-60 cells; read-out: IC50 (control)): 6.41 | pIC50 (HL-60 cells; read-out: IC50 (differentiated)): 6.74 | inhibition at 150 µM (p38α; [1]): 25.1% | inhibition at 150 µM (p38α; [2]): 27.1% | inhibition at 150 µM (p38α; [3]): 23.1% | inhibition at 150 µM (GSK3β; [1]): 94.2% | inhibition at 150 µM (GSK3β; [2]): 95% | inhibition at 150 µM (GSK3β; [3]): 93.4% | inhibition at 150 µM (SIK; [6]): 41.8% | inhibition at 150 µM (SIK; [7]): 40.3% | inhibition at 150 µM (SIK; [8]): 41% | pIC50 (TRPM8): < 4.00 | inhibition at 150 µM (PLK1; [1]): 60% | inhibition at 150 µM (PLK1; [2]): 61.1% | inhibition at 150 µM (PLK1; [3]): 58.9% | inhibition at 150 µM (Pim2; [2]): 79.6% | inhibition at 150 µM (Pim2; [3]): 82.6% | pIC50 (5-LO; IC50 (5-LO), intact human neutrophils, without DTT, n = 3): 5.07 | pIC50 (5-LO; IC50, intact human neutrophils supplemented with 1 mM DTT, n = 4): 6.38 | pIC50 (PDE5): < 5.00 | percent inhibition at 2 µM (PDE5; n = 2, read-out: % of control values, Mean): -8.3% | percent inhibition at 2 µM (PDE5; [4]): -6.9% | percent inhibition at 2 µM (PDE5; [5]): -9.7% | activity against PDE5 (PDE5; screening against phosphodiesterase 5): inactivity | inhibition at 150 µM (PKCβ2; [1]): 34% | inhibition at 150 µM (PKCβ2; [2]): 36.5% | inhibition at 150 µM (PKCβ2; [3]): 31.6%
